Data taken from patent US20040037897A1, “Treatment of drug resistant organisms” (priority 2000, published 2004).

Test system: Staphylococcus aureus organisms
Experiment: In vitro tests of susceptibility to NO
Assay type: cell-based

[N]=O [NO, Nitric oxide]
susceptibility to NO: susceptible
